From patent US4918064A, “Phenyl glycines for use in reducing neurotoxic injury” (G. D. Searle & Co., priority 1987, dated 1990) come the findings set out here.

In experiment [1] the target is Quis (quisqualate) receptor. Description: [3H]AMPA (QUIS) receptor binding assay, synaptic plasma membranes. As to conditions: [3H]AMPA 10 nM, 100 mM KSCN, 0-4° C., 10 min. Here is the method:
(§1) Synaptic plasma membranes (SPM) were prepared as previously described [Monahan, J. B. and Michel, J., "Identification and Characterization of an N-methyl-D-aspartate-specific L[^3 H]glutamate Recognition Site in Synaptic Plasma Membranes, J. Neurochem., 48, 1699-1708 (1987)]. The SPM were stored at a concentration of 10-15 mg/ml in 0.32M sucrose, 0.5 mM EDTA, 1 mM MgSO4, 5 mM Tris/SO4, pH 7.4, under liquid nitrogen. The identity and purity of the subcellular fractions were confirmed by both electron microscopy and marker enzymes. Protein concentrations were determined by using a modification of the method of Lowry [Ohnishi, S. T. and Barr, J. K., "A Simplified Method of Quantitating Proteins Using the Biuret and Phenol Reagents", Anal. Biochem., 86, 193-197 (1978)].
(§2) The SPM were treated identically for the [^3 H]AMPA (QUIS), [^3 H]kainate and sodium-dependent L-[^3 H]-glumatate binding assays. The SPM were thawed at room temperature, diluted twenty-fold with 50 mM Tris/acetate, pH 7.4, incubated at 37° C. for 30 minutes, and centrifuged at 100,000 g for 15 minutes. The dilution, incubation, and centrifugation was repeated a total of three times.
(§3) The basic procedure for the receptor subclass binding assays was similar. This general method involved adding the radioligand (12.5 nM L-[^3 H]glutamate; 0.5 nM [^3 H]kainate or 10 nM [^3 H]AMPA) to the appropriate concentration of the test compound and initiating the assay by the addition of ice cold synaptic plasma membranes (0.2-0.45 mg). The binding assays were performed in 1.5 mL centrifuge tubes with the total volume adjusted to 1.0 mL. .Additions of test compounds were made in 50 mM Tris/acetate, pH 7.4 and incubations were carried out at 0°-4° C. The incubation time for the NMDA and the AMPA binding assays was 10 minutes, for the kainate binding assay 60 minutes and for the sodium-dependent glutamate binding assay 15 minutes. The AMPA binding assay contained 100 mM KSCN and the sodium-dependent glutamate binding assay contained 150 mM sodium acetate in addition to the previously described reagents.
(§4) To terminate the incubation, the samples were centrifuged for 15 minutes at 12,000 g and 4° C. in a Beckman Microfuge 12. The supernatant was aspirated and the pelleted membranes dissolved in Beckman BTS-450 tissue solubilizer for a minimum of 6 hours at room temperature. Beckman MP scintillation cocktail containing 7 mL/1 acetic acid was then added and the samples counted on a Beckman LS 5800 or 3801 liquid scintillation counter with automatic corrections for quenching and counting efficiency.
(§5) Nonspecific binding was defined as the residual binding in the presence of either excess L-glutamate (0.1-0.4 mM), kainate (0.01 mM), or NMDA (0.5 mM), and was 15-25% of the total binding in the NMDA binding assay, 19-27% in the AMPA binding assay, 20-30% in the kainate binding assay and 10-15% in the sodium-dependent binding assay. Radioligand binding to the synaptic plasma membranes was analyzed using Scatchard and Hill transformations and the Ki values of the compounds determined using logit-log transformations. Calculations and regression analysis were performed using templates developed for Lotus 1, 2, 3 as previously described [Pullan, L. M. "Automated Radioligand Receptor Binding Analysis with Templates for Lotus", Computer Appln. Biosci., 3 131 (1987)]. Binding results are reported in Table II for example compounds of the invention. […]

The subject of experiment [2] is hippocampal neurons. The experiment can be described thus: Glutamate Toxicity Survival Assay, cultured hippocampal neurons (MTT). In kind it is cell-based, Sprague-Dawley rat. As to conditions: 5 μM compound.
Procedure: Hippocampal neurons were obtained from embryonic day 17 Sprague-Dawley rats. The brains were removed and the hippocampus dissected, placed in ice-cold Leibovitz L-15 medium, carefully stripped of any remaining meninges, and minced into small pieces using scissors. […] Following incubation, the cells were rinsed with 10% serum-containing medium and dissociated by gentle trituration using a reduced bore diameter Pasteur pipet. The cells were plated on a polylysine-coated (0.5 rg/ml, Sigma) 96-well microtiter plates at 30,000 cells/well.
The neuronal survival assay utilized the compound MTT [3-(4,5-dimethylthiazol-2-yl)-2,5-diphenyl tetrazolium bromide], a pale yellow substrate that is cleaved by the mitochondrial enzyme succinate-dehydrogenase to yield a dark blue formazan product. This process requires active mitochondria, present only in live cells. Cultures of hippocampal neurons grown in 96-well plates were incubated with 1 mg/ml MTT at 36° C. in a 10% CO2 -in-air incubator for 30-60 minutes. At the end of the incubation, a dark blue precipitate outlined only viable cells. The precipitate was then solubilized using 0.08N HCl/isopropanol mixture and the absorbance measured with an ELISA plate reader (Dynatech MR600) using a test wavelength of 570 nm and a reference wavelength of 630 nm. The resulting optical density is directly proportional to the number of viable cells.
In experiment [3] the test system is hippocampal neurons. Format: cell-based, Sprague-Dawley rat. As to conditions: 1 μM compound.
Procedure: Hippocampal neurons were obtained from embryonic day 17 Sprague-Dawley rats. The brains were removed and the hippocampus dissected, placed in ice-cold Leibovitz L-15 medium, carefully stripped of any remaining meninges, and minced into small pieces using scissors. The tissue was rinsed with calcium-magnesium-free Hanks' Balanced Salt Solution and incubated with 0.25% trypsin (Worthington), 40 μg/ml DNAase (Sigma) for 30 minutes at 36° C. Following incubation, the cells were rinsed with 10% serum-containing medium and dissociated by gentle trituration using a reduced bore diameter Pasteur pipet. The cells were plated on a polylysine-coated (0.5 rg/ml, Sigma) 96-well microtiter plates at 30,000 cells/well. Cells were maintained in fluorodeoxyuridine (5 μM) containing chemically defined medium [Bottenstein, J., Sato, G., "Growth of a Rat Neuroblastoma Cell Line in Serum-free Supplemented Medium", Proc. Nat'l. […]
The neuronal survival assay utilized the compound MTT [3-(4,5-dimethylthiazol-2-yl)-2,5-diphenyl tetrazolium bromide], a pale yellow substrate that is cleaved by the mitochondrial enzyme succinate-dehydrogenase to yield a dark blue formazan product. […] The precipitate was then solubilized using 0.08N HCl/isopropanol mixture and the absorbance measured with an ELISA plate reader (Dynatech MR600) using a test wavelength of 570 nm and a reference wavelength of 630 nm. […]
Experiment [4] deals with KA (kainate) receptor. The experiment can be described thus: [3H]kainate receptor binding assay, synaptic plasma membranes. As to conditions: [3H]kainate 0.5 nM, 0-4° C., 60 min. The procedure:
as §1, §2, §3, §4, §5

Experiment [5] concerns the target NMDA receptor. The experiment can be described thus: NMDA-specific L-[3H]glutamate receptor binding assay, synaptic plasma membranes. As to conditions: L-[3H]glutamate 12.5 nM, Triton X-100 treated SPM, 0-4° C., 10 min. Here is the method:
as §1
Prior to use in the NMDA-specific L-[^3 H]glutamate binding assay the SPM were thawed, diluted twenty fold with 50 mM Tris/acetate, pH 7.4 containing 0.04% (v/v) Triton X-100, incubated for 30 minutes at 37° C. and centrifuged as described above. The Triton X-100 treated membranes were washed with 50 mM Tris/acetate, pH 7.4 and centrifuged at 100,000 g for 15 minutes a total of four times.
as §3, §4, §5

Experiment [6] concerns NMDA-induced focal potentials, hippocampal slices. Description: In Vitro Hippocampal Slice Assay (NMDA-induced focal potentials). In kind it is cell-based, Sprague-Dawley albino rat. As to conditions: Rattus norvegicus; 100 μM NMDA pressure ejections, recorded in CA1. Here is the method:
Hippocampal slices were prepared from male, Sprague-Dawley albino rats (100-300 gm) and maintained as described previously [Ganong, A. H., Lanthorn, T. H., Cotman, C. W., "Kynurenic Acid Synaptic and Acidic Amino Acid-Induced Responses in the Rat Hippocampus and Spinal Cord", Brain Research, 273 170-174 (1983)]. The hippocampus was removed in the cold and sliced to a thickness of 450 microns on a McIlwain tissue chopper in experimental medium (124 mM NaCl, 2.5 mM KCl, 1.0 mM KH2 PO4, 26.4 mM NaHCO3, 2 mM CaCl2, 1.5 mM MgSO4, and 10 mM D-glucose) with 10 mM Hepes. The slices were quickly transferred to a static bath and rinsed with experimental medium (without Hepes) and maintained at 34°-35° C. in a humidified chamber with 95% oxygen and 5% carbon dioxide. As needed, slices were transferred from the static bath to a small perfusion chamber where they were secured with an upper net and completely submerged in a continuously flowing experimental medium (2.0 ml/min). The Schaffer collateral/commissural-CAl (S/C-CAl) synaptic response was stimulated (0.05 Hz; 0.01 msec. single duration shock) with bipolar electrodes (Rhodes, Inc.) from stratum radiatum at the CA2-CA3 border. Evoked field EPSPs and drug-induced focal potentials were recorded in the middle portion of CAl. […]

As a reminder, the Ki is a dissociation constant, usually derived from enzyme kinetics or from competition with a known ligand. Low readings indicate tighter binding, high ones weaker binding. By IC50 is commonly meant the point on the concentration scale where inhibition reaches its midpoint. Read a low IC50 as greater potency in that assay. For `NC(C(=O)O)c1ccc(CP(=O)(O)O)cc1` (stereo not drawn) [Example VI, 4-(Phosphonomethyl)phenylglycine], the inhibition constant Ki in experiment [1] is over 300 µM; in experiment [5] it was 3.9 µM. For the same compound, the “protection of neurons from glutamate toxicity” value in experiment [2] is “Significant protection”. The “protection of neurons from sodium azide toxicity” value in experiment [3] is recorded as “significant protection”. Also, the “Receptor binding, KA (Ki)” value in experiment [4] is over 300 µM. The compound also gave a 50% inhibitory concentration (IC50) in experiment [6] of 4 µM.
